{
  "source": "paper PMC6941172",
  "about": "(Journal of medicinal chemistry, 2018)",
  "key": {"[1]": {"test_system": "HEPG2 (liver) cells", "assay": "Cytotoxicity assay", "format": "cell-based, human", "settings": "HEPG2, up to 400 μM, 48 hours"}, "[2]": {"test_system": "HEK293 (kidney) cells", "assay": "Cytotoxicity assay", "format": "cell-based, human", "settings": "HEK293, up to 400 μM, 48 hours"}, "[3]": {"assay": "Microsomal stability assay, human liver microsomes", "format": "in vitro ADME", "settings": "for Increase in half-life (HLM) relative to parent ligand: vs respective parent (8a, 8i, 8n or 8k)"}, "[4]": {"assay": "Microsomal stability assay, mouse liver microsomes", "format": "in vitro ADME", "settings": "for Increase in half-life (MLM) relative to parent ligand: vs respective parent (8a, 8i, 8n or 8k)"}, "[5]": {"assay": "Solubility assay", "format": "physicochemical", "settings": "vs 8k, neutral and acidic aqueous media"}, "[6]": {"target": "GABAAR α6β3γ2 subtype (Rattus norvegicus, UniProt P18508+P30191+P63079)", "sequence (P30191 20-453)": "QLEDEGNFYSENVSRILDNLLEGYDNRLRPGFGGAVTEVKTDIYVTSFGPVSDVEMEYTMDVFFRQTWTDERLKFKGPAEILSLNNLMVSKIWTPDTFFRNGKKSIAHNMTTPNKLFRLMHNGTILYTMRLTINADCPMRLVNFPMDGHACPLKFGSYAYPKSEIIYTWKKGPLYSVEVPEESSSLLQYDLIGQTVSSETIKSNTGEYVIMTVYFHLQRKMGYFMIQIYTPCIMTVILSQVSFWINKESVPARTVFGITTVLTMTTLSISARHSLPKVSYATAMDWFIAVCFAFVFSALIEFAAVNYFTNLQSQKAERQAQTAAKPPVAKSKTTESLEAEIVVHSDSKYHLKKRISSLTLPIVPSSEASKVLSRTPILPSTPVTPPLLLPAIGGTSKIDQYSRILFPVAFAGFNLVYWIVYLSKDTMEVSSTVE", "sequence (P63079 26-473)": "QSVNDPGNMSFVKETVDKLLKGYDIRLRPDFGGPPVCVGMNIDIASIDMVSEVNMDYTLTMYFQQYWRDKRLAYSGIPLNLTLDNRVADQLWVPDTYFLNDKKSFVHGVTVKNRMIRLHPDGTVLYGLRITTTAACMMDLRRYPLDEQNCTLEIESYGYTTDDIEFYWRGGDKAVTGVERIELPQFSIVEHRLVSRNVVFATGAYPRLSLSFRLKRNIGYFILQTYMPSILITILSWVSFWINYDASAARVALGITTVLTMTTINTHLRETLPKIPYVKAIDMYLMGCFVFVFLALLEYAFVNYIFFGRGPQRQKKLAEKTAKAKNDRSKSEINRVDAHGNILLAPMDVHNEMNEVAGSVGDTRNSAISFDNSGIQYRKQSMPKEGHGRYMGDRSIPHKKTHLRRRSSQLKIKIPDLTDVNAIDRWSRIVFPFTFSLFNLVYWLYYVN", "sequence (P18508 39-466)": "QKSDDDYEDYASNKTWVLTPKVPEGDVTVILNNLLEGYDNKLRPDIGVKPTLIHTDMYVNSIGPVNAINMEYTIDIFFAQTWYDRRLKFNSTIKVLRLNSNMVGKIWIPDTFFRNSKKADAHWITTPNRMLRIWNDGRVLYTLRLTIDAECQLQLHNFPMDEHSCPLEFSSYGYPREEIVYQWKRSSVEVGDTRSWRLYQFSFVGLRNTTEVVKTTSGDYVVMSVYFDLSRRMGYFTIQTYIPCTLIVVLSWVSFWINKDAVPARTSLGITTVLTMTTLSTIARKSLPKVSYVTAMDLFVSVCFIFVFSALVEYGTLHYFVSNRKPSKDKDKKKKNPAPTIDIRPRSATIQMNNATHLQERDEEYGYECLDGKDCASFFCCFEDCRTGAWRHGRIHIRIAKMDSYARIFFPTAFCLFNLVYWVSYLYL", "assay": "Electrophysiological assay in Xenopus oocytes, modulation of GABA EC3 currents", "format": "cell-based"}, "[7]": {"test_system": "BZP rat brain site of GABAARs", "assay": "PDSP radioligand displacement, [3H]flunitrazepam", "format": "binding", "settings": "[3H]flunitrazepam displacement"}, "[8]": {"assay": "Pharmacokinetic study, IP 10 mg/kg, plasma and brain", "format": "in vivo, rat", "settings": "rats"}, "[9]": {"test_system": "rats", "assay": "Rotarod pilot experiment in rats", "format": "in vivo, rat", "settings": "IP doses as high as 60 mg/kg"}},
  "note": "“Also recorded” adds a separate entry of the source.",
  "data": [
    {"smiles": "[2H]C([2H])([2H])Oc1cccc(-n2nc3c4ccc(OC([2H])([2H])[2H])cc4[nH]cc-3c2=O)c1", "note": "[Compound 8e, 7-Methoxy-d3-2-(3-methoxy-d3-phenyl)-2,5-dihydro-3H-pyrazolo[4,3-c]quinolin-3-one]", "values": [
      {"measurement": "Cytotoxicity / cell viability", "setting": "[1]", "result": "no impact on cytotoxicity"},
      {"measurement": "Cytotoxicity / cell viability", "setting": "[2]", "result": "no impact on cytotoxicity"}
    ]},
    {"smiles": "COc1ccc(-n2nc3c4ccc(Br)cc4[nH]cc-3c2=O)cn1", "note": "[Compound 13g, 7-Bromo-2-(6-methoxypyridin-3-yl)-2,5-dihydro-3H-pyrazolo[4,3-c]quinolin-3-one]", "values": [
      {"measurement": "Cytotoxicity / cell viability", "setting": "[1]", "result": "no impact of cell viability"},
      {"measurement": "Cytotoxicity / cell viability", "setting": "[2]", "result": "no impact of cell viability"},
      {"measurement": "Increase in half-life (HLM) relative to parent ligand", "setting": "[3]", "result": "seven-fold"},
      {"measurement": "Increase in half-life (MLM) relative to parent ligand", "setting": "[4]", "result": "seven-fold"}
    ]},
    {"smiles": "COc1ccc(-n2nc3c4cc(Cl)ccc4[nH]cc-3c2=O)cn1", "note": "[Compound 13e, 8-Chloro-2-(6-methoxypyridin-3-yl)-2,5-dihydro-3H-pyrazolo[4,3-c]quinolin-3-one]", "values": [
      {"measurement": "Cytotoxicity / cell viability", "setting": "[1]", "result": "no impact of cell viability"},
      {"measurement": "Cytotoxicity / cell viability", "setting": "[2]", "result": "no impact of cell viability"},
      {"measurement": "Increase in half-life (HLM) relative to parent ligand", "setting": "[3]", "result": "nearly four-fold"},
      {"measurement": "Increase in half-life (MLM) relative to parent ligand", "setting": "[4]", "result": "two-fold"},
      {"measurement": "Decrease in water solubility", "setting": "[5]", "result": "~10", "unit": "fold"}
    ]},
    {"smiles": "[2H]C([2H])([2H])Oc1cccc(-n2nc3c4cc(Cl)ccc4[nH]cc-3c2=O)c1", "note": "[Compound 8j, 8-Chloro-2-(3-methoxy-d3-phenyl)-2,5-dihydro-3H-pyrazolo[4,3-c]quinolin-3-one]", "values": [
      {"measurement": "Cytotoxicity / cell viability", "setting": "[1]", "result": "no impact on cytotoxicity"},
      {"measurement": "Cytotoxicity / cell viability", "setting": "[2]", "result": "no impact on cytotoxicity"},
      {"measurement": "Increase in half-life (HLM) relative to parent ligand", "setting": "[3]", "result": "three-fold"},
      {"measurement": "Increase in half-life (MLM) relative to parent ligand", "setting": "[4]", "result": "two-fold"},
      {"measurement": "Efficacy / activity at the α6β3γ2 subtype (in words)", "setting": "[6]", "result": "poorer efficacy"}
    ]},
    {"smiles": "[2H]C([2H])([2H])Oc1ccccc1-n1nc2c3ccc(Br)cc3[nH]cc-2c1=O", "note": "[Compound 8q, 7-Bromo-2-(2-methoxy-d3-phenyl)-2,5-dihydro-3H-pyrazolo[4,3-c]quinolin-3-one]", "values": [
      {"measurement": "Binding to the BZP rat brain site (in words)", "setting": "[7]", "result": "significantly less binding; also recorded: significantly reduced affinity"}
    ]},
    {"smiles": "[2H]C([2H])([2H])Oc1ccccc1-n1nc2c3ccc(OC)cc3[nH]cc-2c1=O", "note": "[Compound 8h, 7-Methoxy-2-(2-methoxy-d3-phenyl)-2,5-dihydro-3H-pyrazolo[4,3-c]quinolin-3-one]", "values": [
      {"measurement": "Binding to the BZP rat brain site (in words)", "setting": "[7]", "result": "significantly less binding; also recorded: significantly reduced affinity"}
    ]},
    {"smiles": "[2H]C([2H])([2H])Oc1ccc(-n2nc3c4ccc(OC)cc4[nH]cc-3c2=O)cn1", "note": "[Compound 13b, 7-Methoxy-2-(6-methoxy-d3-pyridin-3-yl)-2,5-dihydro-3H-pyrazolo[4,3-c]quinolin-3-one]", "values": [
      {"measurement": "Efficacy / activity at the α6β3γ2 subtype (in words)", "setting": "[6]", "result": "retained some efficacy"}
    ]},
    {"smiles": "[2H]C([2H])([2H])Oc1ccc(-n2nc3c4ccc(Br)cc4[nH]cc-3c2=O)cc1", "note": "[Compound 8o, 7-Bromo-2-(4-methoxy-d3-phenyl)-2,5-dihydro-3H-pyrazolo[4,3-c]quinolin-3-one]", "values": [
      {"measurement": "Increase in half-life (HLM) relative to parent ligand", "setting": "[3]", "result": "two-fold"},
      {"measurement": "Increase in MLM-mediated half-life", "setting": "[4]; vs parent 8n", "result": 20, "unit": "%"},
      {"measurement": "Efficacy / activity at the α6β3γ2 subtype (in words)", "setting": "[6]", "result": "efficacies comparable to 8n"}
    ]},
    {"smiles": "[2H]C([2H])([2H])Oc1ccc(-n2nc3c4ccc(Br)cc4[nH]cc-3c2=O)cn1", "note": "[Compound 13h, 7-Bromo-2-(6-methoxy-d3-pyridin-3-yl)-2,5-dihydro-3H-pyrazolo[4,3-c]quinolin-3-one]", "values": [
      {"measurement": "Increase in metabolic stability in HLM", "setting": "[3]; vs 8o", "result": 11, "unit": "fold"},
      {"measurement": "Increased stability (HLM half-life)", "setting": "[3]; vs OCH3 N-hetero ligand 13g", "result": "three-fold"},
      {"measurement": "Increase in stability in MLM", "setting": "[4]; vs 8o", "result": 30, "unit": "fold"},
      {"measurement": "Increased stability (MLM half-life)", "setting": "[4]; vs OCH3 N-hetero ligand 13g", "result": "six-fold"},
      {"measurement": "Efficacy / activity at the α6β3γ2 subtype (in words)", "setting": "[6]", "result": "retained some efficacy; also recorded: efficacies comparable to 8n"}
    ]},
    {"smiles": "[2H]C([2H])([2H])Oc1ccc2c3nn(-c4ccccc4OC([2H])([2H])[2H])c(=O)c-3c[nH]c2c1", "note": "[Compound 8f, 7-Methoxy-d3-2-(2-methoxy-d3-phenyl)-2,5-dihydro-3H-pyrazolo[4,3-c]quinolin-3-one]", "values": [
      {"measurement": "Cytotoxicity / cell viability", "setting": "[1]", "result": "no impact on cytotoxicity"},
      {"measurement": "Cytotoxicity / cell viability", "setting": "[2]", "result": "no impact on cytotoxicity"}
    ]},
    {"smiles": "[2H]C([2H])([2H])Oc1ccc(-n2nc3c4ccc(OC([2H])([2H])[2H])cc4[nH]cc-3c2=O)cc1", "note": "[Compound 8d, 7-Methoxy-d3-2-(4-methoxy-d3-phenyl)-2,5-dihydro-3H-pyrazolo[4,3-c]quinolin-3-one]", "values": [
      {"measurement": "Brain concentration (Cmax) compared with parent 8a", "setting": "[8]", "result": "almost two-fold increase"}
    ]},
    {"smiles": "[2H]C([2H])([2H])Oc1ccc2c3nn(-c4ccc(OC)cc4)c(=O)c-3c[nH]c2c1", "note": "[Compound 8c, 7-Methoxy-d3-2-(4-methoxyphenyl)-2,5-dihydro-3H-pyrazolo[4,3-c]quinolin-3-one]", "values": [
      {"measurement": "Increase in half-life (HLM) relative to parent ligand", "setting": "[3]", "result": "three-fold"},
      {"measurement": "Brain concentration (Cmax) compared with parent 8a", "setting": "[8]", "result": "almost two-fold increase"},
      {"measurement": "Increase in half-life (MLM) relative to parent ligand", "setting": "[4]", "result": "four-fold"}
    ]},
    {"smiles": "[2H]C([2H])([2H])Oc1ccc(-n2nc3c4cc(Cl)ccc4[nH]cc-3c2=O)cn1", "note": "[Compound 13f, 8-Chloro-2-(6-methoxy-d3-pyridin-3-yl)-2,5-dihydro-3H-pyrazolo[4,3-c]quinolin-3-one]", "values": [
      {"measurement": "Increased half-life (HLM)", "setting": "[3]; vs OCH3 N-hetero ligand 13e", "result": 40, "unit": "%"},
      {"measurement": "Efficacy / activity at the α6β3γ2 subtype (in words)", "setting": "[6]", "result": "much poorer efficacy"}
    ]},
    {"smiles": "[2H]C([2H])([2H])Oc1ccccc1-n1nc2c3cc(Cl)ccc3[nH]cc-2c1=O", "note": "[Compound 8m, 8-Chloro-2-(2-methoxy-d3-phenyl)-2,5-dihydro-3H-pyrazolo[4,3-c]quinolin-3-one]", "values": [
      {"measurement": "Motor coordination and balance on the rotarod", "setting": "[9]", "result": "retained"},
      {"measurement": "Cytotoxicity / cell viability", "setting": "[1]", "result": "no impact on cytotoxicity"},
      {"measurement": "Cytotoxicity / cell viability", "setting": "[2]", "result": "no impact on cytotoxicity"},
      {"measurement": "Binding to the BZP rat brain site (in words)", "setting": "[7]", "result": "reasonable binding affinity"},
      {"measurement": "Efficacy / activity at the α6β3γ2 subtype (in words)", "setting": "[6]", "result": "completely inactive; also recorded: no activity; also recorded: almost no efficacy"}
    ]},
    {"smiles": "COc1ccc(-n2nc3c4cnc(OC)cc4[nH]cc-3c2=O)cc1", "note": "[Compound 13i, 7-Methoxy-2-(4-methoxyphenyl)-2,5-dihydro-3H-pyrazolo[4,3-c][1,6]naphthyridin-3-one]", "values": [
      {"measurement": "Efficacy / activity at the α6β3γ2 subtype (in words)", "setting": "[6]", "result": "retained some efficacy"}
    ]}
  ]
}
